Like-named read-outs stand apart in the source and are kept apart here.
Experiments:
[1] = system: HCC1954 (BRCA1 WT) cell line; experiment: Viability assay in BRCA1 WT cell line HCC1954; format: cell-based; details: Homo sapiens, read-out: HCC 1954 IC50 rel IC50
Text: (§1) Table 1 also indicates IC50 values in a viability assay for a non-isogenic pair of BRCA1 mutant (column 5—MDA-MB-436) and BRCA1 WT (column 6—HCC1954) cell lines. These values indicate the effect of treatment with compound on cell survival.

[2] = molecular target: USP1-UAF1 (Homo sapiens, UniProt O94782); experiment: Ubiquitin Rhodamine assay for USP1-UAF1 activity; format: biochemical
Protocol: Certain compounds of the disclosure were assessed for USP1-UAF1 activity in a Ubiquitin Rhodamine assay as described in Example 135.

[3] = system: MDA-MB-436 (BRCA1 mutant) cell line; experiment: Viability assay in BRCA1 mutant cell line MDA-MB-436; format: cell-based; details: Homo sapiens, BRCA1 mutant MDA-MB-436, read-out: MDA-MB-436 rel IC50
Text: as §1

[4] = system: monoubiquitinated PCNA; experiment: AlphaLISA assay measuring monoubiquitinated PCNA in MDA-MB-436; format: cell-based; details: Homo sapiens, read-out: Alpha LISA IC50
Text: Table 1 also indicates IC50 values for exemplary compounds in an AlphaLISA assay measuring monoubiquitinated PCNA in a BRCA1 mutant cell line (MDA-MB-436; column 7).

Sequence of USP1-UAF1 (O94782 whole entry): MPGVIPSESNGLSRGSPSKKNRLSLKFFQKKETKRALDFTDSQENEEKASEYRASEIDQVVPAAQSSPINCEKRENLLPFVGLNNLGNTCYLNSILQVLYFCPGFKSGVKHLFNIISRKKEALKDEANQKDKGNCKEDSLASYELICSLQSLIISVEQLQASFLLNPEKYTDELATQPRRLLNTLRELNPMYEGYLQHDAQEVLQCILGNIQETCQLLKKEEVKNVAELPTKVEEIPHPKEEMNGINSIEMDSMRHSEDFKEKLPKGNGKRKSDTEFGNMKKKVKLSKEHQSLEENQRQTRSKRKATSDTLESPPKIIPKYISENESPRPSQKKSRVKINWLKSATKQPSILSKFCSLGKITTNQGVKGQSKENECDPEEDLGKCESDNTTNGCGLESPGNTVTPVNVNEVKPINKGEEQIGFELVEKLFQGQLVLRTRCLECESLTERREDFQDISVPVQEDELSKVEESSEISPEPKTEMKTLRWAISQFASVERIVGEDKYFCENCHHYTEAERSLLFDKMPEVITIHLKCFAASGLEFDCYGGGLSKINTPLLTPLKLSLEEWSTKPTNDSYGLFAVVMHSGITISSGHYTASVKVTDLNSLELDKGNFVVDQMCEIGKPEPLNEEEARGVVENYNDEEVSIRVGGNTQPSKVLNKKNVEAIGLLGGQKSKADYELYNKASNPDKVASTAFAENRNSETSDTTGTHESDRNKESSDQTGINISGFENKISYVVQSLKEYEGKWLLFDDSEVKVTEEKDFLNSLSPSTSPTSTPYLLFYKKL
Sequence of USP1-UAF1 (Q8TAF3 whole entry partner): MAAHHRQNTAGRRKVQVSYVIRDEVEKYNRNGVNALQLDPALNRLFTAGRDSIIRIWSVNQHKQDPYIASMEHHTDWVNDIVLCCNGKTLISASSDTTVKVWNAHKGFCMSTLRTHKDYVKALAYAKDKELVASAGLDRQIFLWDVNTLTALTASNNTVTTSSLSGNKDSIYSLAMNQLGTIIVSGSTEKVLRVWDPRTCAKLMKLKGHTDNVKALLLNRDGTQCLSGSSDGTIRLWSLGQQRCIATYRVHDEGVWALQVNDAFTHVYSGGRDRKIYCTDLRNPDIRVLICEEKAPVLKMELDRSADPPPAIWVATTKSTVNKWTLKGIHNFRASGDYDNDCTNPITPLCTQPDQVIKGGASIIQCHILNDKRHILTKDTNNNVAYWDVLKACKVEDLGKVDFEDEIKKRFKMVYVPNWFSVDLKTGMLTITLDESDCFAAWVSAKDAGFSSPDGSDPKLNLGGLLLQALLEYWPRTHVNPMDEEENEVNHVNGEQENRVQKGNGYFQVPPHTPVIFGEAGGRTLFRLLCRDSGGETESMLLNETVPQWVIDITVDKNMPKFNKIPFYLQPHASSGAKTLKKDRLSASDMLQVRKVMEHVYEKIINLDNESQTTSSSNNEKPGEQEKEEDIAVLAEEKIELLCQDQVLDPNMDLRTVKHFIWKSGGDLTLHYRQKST

With COc1ncnc(C2CC2)c1-c1ncc2[nH]nc(Cc3cc(F)c(-c4nc(C(F)(F)F)cn4C)c(F)c3)c2n1 [Compound 171, 5-(4-cyclopropyl-6-methoxy-pyrimidin-5-yl)-3-[[3,5-difluoro-4-[1-methyl-4-(trifluoromethyl)imidazol-2-yl]phenyl]methyl]-1H-pyrazolo[4,3-d]pyrimidine] the IC50 [1] was ≥ 10000 nM, the IC50 [2] was < 30 nM and the IC50 ([3]; MDA-MB-436, viability) was < 100 nM. The IC50 [4] was < 100 nM.
For COCCn1cc(Cc2ccc(-c3nc(C(F)(F)F)cn3C)cc2)c2nc(-c3ccccc3C(C)C)ncc21 [Compound 83, 2-(2-isopropylphenyl)-5-(2-methoxyethyl)-7-[[4-[1-methyl-4-(trifluoromethyl)imidazol-2-yl]phenyl]methyl]pyrrolo[3,2-d]pyrimidine], the IC50 [1] was ≥ 10000 nM, the IC50 [2] was < 30 nM and the IC50 ([3]; MDA-MB-436, viability) was < 100 nM. For the same compound, the IC50 [4] was < 100 nM.
COc1ncnc(C2CC2)c1-c1ncc2[nH]cc([C@@H](c3ccc(-c4nc(C(F)(F)F)cn4C)cc3)C(C)C)c2n1 (single isomer, unassigned) [Compound 151] was tested, and the IC50 [1] was 250 to 10000 nM, the IC50 [2] was 30 to 100 nM and the IC50 ([3]; MDA-MB-436, viability) was 100 to 250 nM. For the same compound, the IC50 [4] was < 100 nM.
For CC(C)Oc1ncnc(C2CC2)c1-c1ncc2[nH]cc(Cc3ccc(-c4nc(C(F)(F)F)cn4C)cc3)c2n1 [Compound 118, 2-(4-cyclopropyl-6-isopropoxy-pyrimidin-5-yl)-7-[[4-[1-methyl-4-(trifluoromethyl)imidazol-2-yl]phenyl]methyl]-5H-pyrrolo[3,2-d]pyrimidine], the IC50 [1] was ≥ 10000 nM, the IC50 [2] was < 30 nM and the IC50 ([3]; MDA-MB-436, viability) was < 100 nM. For the same compound, the IC50 [4] was < 100 nM.
In the case of C[C@@H](Oc1ncccc1-c1ncc2[nH]cc(Cc3ccc(-c4nc(C(F)(F)F)cn4C)cc3)c2n1)C(F)(F)F (single isomer, unassigned) [Compound 21], the IC50 [1] is reported as 250 to 10000 nM, the IC50 [2] is reported as < 30 nM and the IC50 ([3]; MDA-MB-436, viability) is reported as < 100 nM. For the same compound, the IC50 [4] was < 100 nM.
COc1ncnc(C2CC2)c1-c1ncc2c(n1)c(Cc1ccc(-c3nc(C(F)(F)F)cn3C)cc1)cn2C(C)=O [Compound 93, 1-[2-(4-cyclopropyl-6-methoxy-pyrimidin-5-yl)-7-[[4-[1-methyl-4-(trifluoromethyl)imidazol-2-yl]phenyl]methyl]pyrrolo[3,2-d]pyrimidin-5-yl]ethanone] was tested, and the IC50 [1] was ≥ 10000 nM, the IC50 [2] was 30 to 100 nM and the IC50 ([3]; viability) was < 100 nM. For the same compound, the IC50 [4] was < 100 nM.
In the case of Cn1cc(C(F)(F)F)nc1-c1ccc(Sc2c[nH]c3cnc(-c4ccccc4C(F)(F)F)nc23)cc1 [Compound 84, 7-[4-[1-methyl-4-(trifluoromethyl)imidazol-2-yl]phenyl]sulfanyl-2-[2-(trifluoromethyl)phenyl]-5H-pyrrolo[3,2-d]pyrimidine], the IC50 [1] is reported as ≥ 10000 nM, the IC50 [2] is reported as 100 to 10000 nM and the IC50 ([3]; MDA-MB-436, viability) is reported as 250 to 10000 nM. The IC50 [4] was 250 to 10000 nM.
In the case of COc1nccc(C)c1-c1ncc2[nH]nc(Cc3ccc(-c4nc(C(F)(F)F)cn4C)cc3)c2n1 [Compound 191], the IC50 [1] is reported as ≥ 10000 nM, the IC50 [2] is reported as 100 to 10000 nM and the IC50 ([3]; MDA-MB-436, viability) is reported as 100 to 250 nM. It also gave an IC50 [4] of 250 to 10000 nM.
In the case of Cn1cc(C(F)(F)F)nc1-c1ccc(Cc2c[nH]c3cnc(-c4c(OC(F)F)ncnc4C4CC4)nc23)cc1 [Compound 138, 2-[4-cyclopropyl-6-(difluoromethoxy)pyrimidin-5-yl]-7-[[4-[1-methyl-4-(trifluoromethyl)imidazol-2-yl]phenyl]methyl]-5H-pyrrolo[3,2-d]pyrimidine], the IC50 [1] is reported as ≥ 10000 nM, the IC50 [2] is reported as < 30 nM and the IC50 ([3]; MDA-MB-436, viability) is reported as < 100 nM. For the same compound, the IC50 [4] was < 100 nM.
For COc1ncnc(C2CC2)c1-c1ncc2[nH]c(CN(C)C)c(Cc3ccc(-c4nc(C(F)(F)F)cn4C)cc3)c2n1 [Compound 176, 1-[2-(4-cyclopropyl-6-methoxy-pyrimidin-5-yl)-7-[[4-[1-methyl-4-(trifluoromethyl)imidazol-2-yl]phenyl]methyl]-5H-pyrrolo[3,2-d]pyrimidin-6-yl]-N,N-dimethyl-methanamine], the IC50 [1] was ≥ 10000 nM, the IC50 [2] was 30 to 100 nM and the IC50 ([3]; MDA-MB-436, viability) was < 100 nM. For the same compound, the IC50 [4] was < 100 nM.
For C[C@H](Oc1ncccc1-c1ncc2[nH]cc(Cc3ccc(-c4nc(C(F)(F)F)cn4C)cc3)c2n1)C(F)(F)F (single isomer, unassigned) [Compound 51], the IC50 [1] was 250 to 10000 nM, the IC50 [2] was < 30 nM and the IC50 ([3]; MDA-MB-436, viability) was < 100 nM. For the same compound, the IC50 [4] was < 100 nM.
In the case of COc1ncnc(C2CC2)c1-c1ncc2[nH]cc(Cc3ccc(-c4nc(C#N)cn4C)cc3)c2n1 [Compound 31, 2-[4-[[2-(4-cyclopropyl-6-methoxy-pyrimidin-5-yl)-5H-pyrrolo[3,2-d]pyrimidin-7-yl]methyl]phenyl]-1-methyl-imidazole-4-carbonitrile], the IC50 [1] is reported as ≥ 10000 nM, the IC50 [2] is reported as 100 to 10000 nM and the IC50 ([3]; MDA-MB-436, viability) is reported as 250 to 10000 nM. For the same compound, the IC50 [4] was 250 to 10000 nM.
With COc1ncnc(C2CC2)c1-c1cc2c(Cc3ccc(-c4nc(C(F)(F)F)cn4C)cc3)c[nH]c2cn1 [Compound 23, 5-(4-cyclopropyl-6-methoxy-pyrimidin-5-yl)-3-[[4-[1-methyl-4-(trifluoromethyl)imidazol-2-yl]phenyl]methyl]-1H-pyrrolo[2,3-c]pyridine] the IC50 [1] was 250 to 10000 nM, the IC50 [2] was < 30 nM and the IC50 ([3]; MDA-MB-436, viability) was < 100 nM. For the same compound, the IC50 [4] was < 100 nM.
With COc1ncnc(C(C)(C)C)c1-c1ncc2c(n1)c(Cc1ccc(-c3nc(C(F)(F)F)cn3C)cc1)nn2C [Compound 96] the IC50 [1] was ≥ 10000 nM, the IC50 [2] was 30 to 100 nM and the IC50 ([3]; MDA-MB-436, viability) was 100 to 250 nM. It also gave an IC50 [4] of 100 to 250 nM.
In the case of COc1ncnc(C2CC2)c1-c1ncc2[nH]nc(Cc3ccc(-c4nc(C(F)(F)F)cn4C)c(F)c3)c2n1 [Compound 90, 5-(4-cyclopropyl-6-methoxypyrimidin-5-yl)-3-(3-fluoro-4-(1-methyl-4-(trifluoromethyl)-1H-imidazol-2-yl)benzyl)-1H-pyrazolo[4,3-d]pyrimidine], the IC50 [1] is reported as ≥ 10000 nM, the IC50 [2] is reported as < 30 nM and the IC50 ([3]; MDA-MB-436, viability) is reported as < 100 nM. For the same compound, the IC50 [4] was < 100 nM.
In the case of [2H]C([2H])([2H])Oc1ncnc(C2CC2)c1-c1ncc2[nH]nc(Cc3ccc(-c4nc(C(F)(F)F)cn4C)cc3)c2n1 [Compound 163, 5-[4-cyclopropyl-6-(trideuteriomethoxy)pyrimidin-5-yl]-3-[[4-[1-methyl-4-(trifluoromethyl)imidazol-2-yl]phenyl]methyl]-1H-pyrazolo[4,3-d]pyrimidine], the IC50 [1] is reported as ≥ 10000 nM, the IC50 [2] is reported as < 30 nM and the IC50 ([3]; MDA-MB-436, viability) is reported as < 100 nM. For the same compound, the IC50 [4] was < 100 nM.
With COc1cccc(OC)c1-c1ncc2[nH]nc(Cc3ccc(-c4nc(C(F)(F)F)cn4C)cc3)c2n1 [Compound 136] the IC50 [1] was ≥ 10000 nM, the IC50 [2] was < 30 nM and the IC50 ([3]; MDA-MB-436, viability) was 100 to 250 nM. The IC50 [4] was 250 to 10000 nM.
